# Active and inactive are the calls of the source. The rule behind the calls is not given here.
# Key:
# A498 = experiment: Compound was tested for growth inhibitory activity against A498 cell line; assay type: functional; conditions: Homo sapiens
# BT-549 = experiment: Compound was tested for growth inhibitory activity against BT-549 cell line; assay type: functional; conditions: Homo sapiens
# COLO 205 = experiment: Compound was tested for growth inhibitory activity against COLO 205 cell line; assay type: functional; conditions: Homo sapiens
# HL-60 = experiment: Compound was tested for growth inhibitory activity against HL-60 cell line; assay type: functional; conditions: Homo sapiens
# HT-29 = experiment: Compound was tested for growth inhibitory activity against HT-29 cell line; assay type: functional; conditions: Homo sapiens
# HOP-62 = experiment: Compound was tested for growth inhibitory activity against HOP-62 cell line; assay type: functional; conditions: Homo sapiens
# HCC 2998 = experiment: Compound was tested for growth inhibitory activity against HCC2998 cell line; assay type: functional; conditions: Homo sapiens
# Hs-578T = experiment: Compound was tested for growth inhibitory activity against HS 578T cell line; assay type: functional; conditions: Homo sapiens
# NCI/ADR-RES = experiment: Compound was tested for growth inhibitory activity against MCF-7/ADR cell line; assay type: functional; conditions: Homo sapiens
# MCF7 = experiment: Compound was tested for growth inhibitory activity against MCF-7 cell line; assay type: functional; conditions: Homo sapiens
# MDA-MB-435 = experiment: Compound was tested for growth inhibitory activity against MDA-MB-435 cell line; assay type: functional; conditions: Homo sapiens
# NCI-H522 = experiment: Compound was tested for growth inhibitory activity against NCI-H522 cell line; assay type: functional; conditions: Homo sapiens
# OVCAR-3 = experiment: Compound was tested for growth inhibitory activity against OVCAR-3 cell line; assay type: functional; conditions: Homo sapiens
# OVCAR-8 = experiment: Compound was tested for growth inhibitory activity against OVCAR-8 cell line; assay type: functional; conditions: Homo sapiens
# PC-3 = experiment: Compound was tested for growth inhibitory activity against PC-3 cell line; assay type: functional; conditions: Homo sapiens
# RXF 393 = experiment: Compound was tested for growth inhibitory activity against RXF 393 cell line; assay type: functional; conditions: Homo sapiens
# SF-268 = experiment: Compound was tested for growth inhibitory activity against SF-268 cell line; assay type: functional; conditions: Homo sapiens
# SK-MEL-2 [1] = experiment: Compound was tested for growth inhibitory activity against SK-MEL-2; assay type: functional; conditions: Homo sapiens
# SF-539 = experiment: Compound was tested for growth inhibitory activity against SF-539 cell line; assay type: functional; conditions: Homo sapiens
# SNB-19 = experiment: Compound was tested for growth inhibitory activity against SNB-19 cell line; assay type: functional; conditions: Homo sapiens
# SR = experiment: Compound was tested for growth inhibitory activity against SR cell line; assay type: functional; conditions: Homo sapiens
# SK-MEL-5 = experiment: Compound was tested for growth inhibitory activity against SK-MEL-5 cell line; assay type: functional; conditions: Homo sapiens
# UO-31 = experiment: Compound was tested for growth inhibitory activity against UO-31 cell line; assay type: functional; conditions: Homo sapiens
# [2] = target: Tubulin beta chain (Bos taurus) (UniProt Q6B856); experiment: Effect on microtubule stabilization isolated from bovine brain
# U-251 = experiment: Compound was tested for growth inhibitory activity against U251 cell line; assay type: functional; conditions: Homo sapiens
# NCI-H226 = experiment: Compound was tested for growth inhibitory activity against NCI-H226 cell line; assay type: functional; conditions: Homo sapiens
# 786-0 = experiment: Compound was tested for growth inhibitory activity against 786-0 cell line; assay type: functional; conditions: Homo sapiens
# SF-295 = experiment: Compound was tested for growth inhibitory activity against SF-295 cell line; assay type: functional; conditions: Homo sapiens
# SK-OV-3 = experiment: Compound was tested for growth inhibitory activity against SK-OV-3 cell line; assay type: functional; conditions: Homo sapiens
# UACC-62 = experiment: Compound was tested for growth inhibitory activity against UACC-62 cell line; assay type: functional; conditions: Homo sapiens
# HCT-15 = experiment: Compound was tested for growth inhibitory activity against HCT-15 cell line; assay type: functional; conditions: Homo sapiens
# KM12 = experiment: Compound was tested for growth inhibitory activity against KM12 cell line; assay type: functional; conditions: Homo sapiens
# M14 = experiment: Compound was tested for growth inhibitory activity against M14 cell line; assay type: functional; conditions: Homo sapiens
# MOLT-4 = experiment: Compound was tested for growth inhibitory activity against MOLT-4 cell line; assay type: functional; conditions: Homo sapiens
# SK-MEL-2 [3] = experiment: Compound was tested for growth inhibitory activity against SK-MEL-2 cell line; assay type: functional; conditions: Homo sapiens
# [4] = target: Tubulin beta chain (Bos taurus) (UniProt Q6B856); experiment: Compound was tested for its effect on microtubule stabilization isolated from bovine brain; not significant
# [5] = target: Tubulin beta chain (Bos taurus) (UniProt Q6B856); experiment: Compound was tested for its effect on microtubule stabilization isolated from bovine brain; NS: not significant
# [6] = target: Tubulin beta chain (Bos taurus) (UniProt Q6B856); experiment: Compound was tested for its effect on microtubule stabilization isolated from bovine brain; compound was inactive
# Tubulin beta chain (Bos taurus), sequence (Q6B856 whole entry): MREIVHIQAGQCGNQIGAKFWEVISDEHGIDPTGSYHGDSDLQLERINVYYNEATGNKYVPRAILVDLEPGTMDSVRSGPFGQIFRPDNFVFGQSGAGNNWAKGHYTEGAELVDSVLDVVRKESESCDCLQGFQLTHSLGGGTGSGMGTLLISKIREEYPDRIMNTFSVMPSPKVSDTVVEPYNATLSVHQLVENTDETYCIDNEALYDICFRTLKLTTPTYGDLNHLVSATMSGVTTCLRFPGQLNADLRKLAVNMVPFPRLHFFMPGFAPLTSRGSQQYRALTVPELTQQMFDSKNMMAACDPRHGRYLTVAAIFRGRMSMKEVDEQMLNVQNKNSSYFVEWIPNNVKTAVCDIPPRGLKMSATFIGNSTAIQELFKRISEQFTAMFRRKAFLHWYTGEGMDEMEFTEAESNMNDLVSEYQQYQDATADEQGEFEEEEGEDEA
Structure (SMILES),GI50 (A498) [nM],GI50 (BT-549) [nM],GI50 (COLO 205) [nM],GI50 (HL-60) [nM],GI50 (HT-29) [nM],GI50 (HOP-62) [nM],GI50 (HCC 2998) [nM],GI50 (Hs-578T) [nM],GI50 (NCI/ADR-RES) [nM],GI50 (MCF7) [nM],GI50 (MDA-MB-435) [nM],GI50 (NCI-H522) [nM],GI50 (OVCAR-3) [nM],GI50 (OVCAR-8) [nM],GI50 (PC-3) [nM],GI50 (RXF 393) [nM],GI50 (SF-268) [nM],GI50 (SF-539) [nM],GI50 (SNB-19) [nM],GI50 (SR) [nM],further results
COC(=O)N[C@@H](c1ccncc1)[C@@H](O)C(=O)OC1CC2C(C)(C)C1(C)[C@@]13CC(C)c4ccccc4[C@@]21O3 (stereo not given in full),12300,22900,1860,871,447,6170,525,1480,1910,2820,589,813,1860,2450,3020,4570,3800,4680,2190,1450,GI50 (SK-MEL-2 [1]): 2570 nM; GI50 (SK-MEL-5): 2340 nM; GI50 (UO-31): 562 nM; Relative stability [2]: -5%; GI50 (U-251): 3980 nM; GI50 (NCI-H226): 977 nM; GI50 (786-0): 2750 nM; GI50 (SF-295): 2090 nM; GI50 (SK-OV-3): 1910 nM; GI50 (UACC-62): 2630 nM; GI50 (HCT-15): 977 nM; GI50 (KM12): 933 nM; GI50 (M14): 1740 nM; GI50 (MOLT-4): 4680 nM
CC(=O)O[C@H]1C(=O)[C@@]2(C)[C@H]([C@H](OC(=O)c3ccccc3)[C@]3(O)C[C@H](OC(=O)[C@H](O)[C@@H](NC(=O)c4ccccc4)c4ccccc4)C(C)=C1C3(C)C)[C@]1(OC(C)=O)CO[C@@H]1C[C@@H]2O [PACLITAXEL],79.4,6.31,3.16,5.01,2.51,15.8,3.98,3.16,3160,3.16,2.51,3.16,3.16,5.01,3.98,7.94,7.94,3.16,10,2.51,GI50 (SK-MEL-2 [3]): 5.01 nM; GI50 (SK-MEL-5): 3.98 nM; GI50 (UO-31): 1000 nM; GI50 (U-251): 3.98 nM; GI50 (NCI-H226): 31.6 nM; GI50 (786-0): 19.9 nM; GI50 (SF-295): 15.8 nM; GI50 (SK-OV-3): 10 nM; GI50 (UACC-62): 3.98 nM; GI50 (HCT-15): 200 nM; GI50 (KM12): 3.16 nM; GI50 (M14): 10 nM; GI50 (MOLT-4): 3.98 nM
C=C1C[C@@]23O[C@]2(c2ccccc21)C1CC(OC(=O)[C@H](O)[C@@H](NC(=O)CC(C)(C)C)c2ccccc2)C3(C)C1(C)C (stereo not given in full),,,,,,,,,,,,,,,,,,,,,Relative stability [4]: inactive
CCOC(=O)N[C@@H](c1ccccc1)[C@@H](O)C(=O)OC1CC2C(C)(C)C1(C)[C@@]13C[C@@H](C)c4ccccc4[C@@]21O3 (stereo not given in full),,,,,,,,,,,,,,,,,,,,,Relative stability [5]: inactive
C[C@@H]1C[C@@]23O[C@]2(c2ccccc21)C1CC(OC(=O)[C@H](O)[C@@H](NC(=O)OC(C)(C)C)c2ccccc2)C3(C)C1(C)C (stereo not given in full),,,,,,,,,,,,,,,,,,,,,Relative stability [6]: inactive
